Among the data in ChEMBL document CHEMBL3045727, “Synthesis of some new thiazolopyrane and thiazolopyranopyrimidine derivatives bearing a sulfonamide moiety for evaluation as anticancer and radiosensitizing agents” (Med Chem Res, 2012) are Ratio and IC50 values, retold here.

The test system of assay [1] is HepG2. Put plainly: Cytotoxicity against Homo sapiens (human) HepG2 cells assessed as cell surviving fraction at 50 uM after 48 hr followed by gamma-radiation at dose level of 8 Gy by SRB assay. The assay is classed as functional.
Assay [2] deals with HepG2. Nature of the assay: Cytotoxicity against Homo sapiens (human) HepG2 cells assessed as cell surviving fraction at 25 uM after 48 hr by SRB assay. It is filed as functional. A general note: Sulforhodamine B stains cellular protein and so reports cell mass.
Assay [3] has as its system HepG2. Nature of the assay: Cytotoxicity against Homo sapiens (human) HepG2 cells assessed as cell surviving fraction at 50 uM after 48 hr by SRB assay. It is filed as functional.
For assay [4], the system named is HepG2. Put plainly: Cytotoxicity against Homo sapiens (human) HepG2 cells assessed as cell surviving fraction at 25 uM after 48 hr followed by gamma-radiation at dose level of 8 Gy by SRB assay. It is filed as functional.
Assay [5] relates to HepG2. Nature of the assay: Cytotoxicity against Homo sapiens (human) HepG2 cells assessed as cell surviving fraction at 10 uM after 48 hr by SRB assay. The assay is classed as functional.
The test system of assay [6] is HepG2. Put plainly: Cytotoxicity against Homo sapiens (human) HepG2 cells assessed as cell surviving fraction at 100 uM after 48 hr followed by gamma-radiation at dose level of 8 Gy by SRB assay. The assay is classed as functional.
The test system of assay [7] is HepG2. Nature of the assay: Cytotoxicity against Homo sapiens (human) HepG2 cells assessed as cell surviving fraction at 10 uM after 48 hr followed by gamma-radiation at dose level of 8 Gy by SRB assay. The assay is classed as functional.
For assay [8], the system named is HepG2. Put plainly: Cytotoxicity against Homo sapiens (human) HepG2 cells after 48 hr followed by gamma-radiation at dose level of 8 Gy by SRB assay. Particulars: HepG2, 48 h. It is filed as functional, cell-based.
Assay [9] deals with HepG2. Nature of the assay: Cytotoxicity against Homo sapiens (human) HepG2 cells assessed as cell surviving fraction at 100 uM after 48 hr by SRB assay. The assay is classed as functional.
Assay [10] relates to HepG2. Nature of the assay: Cytotoxicity against Homo sapiens (human) HepG2 cells after 48 hr by SRB assay. The conditions noted are these: HepG2, 48 h. The assay is classed as functional, cell-based.

In general, IC50 refers to the concentration that inhibits the measured activity by half. A low value points to inhibition by little substance. Consider `NS(=O)(=O)c1ccc(NC2=NC(=O)CS2)cc1`, for which the Ratio in the assay on HepG2 [1] turned out to be 0.12; with HepG2 [2] it was 0.501; with HepG2 [3], 0.168; in the assay with HepG2 [4], 0.48; in the assay on HepG2 [5] it was 0.848; in the assay on HepG2 [6] it was 0.12. Besides, the Ratio was found to be 0.53 in the assay with HepG2 [7] and 0.231 with HepG2 [9]. Further, the IC50 in the assay with HepG2 [8] was 30 µM; in the assay with HepG2 [10] it was 43 µM.
Consider `N#CC1=C(N)Oc2nc(Nc3ccc(S(N)(=O)=O)cc3)sc2C1c1ccc([N+](=O)[O-])cc1` (stereo not drawn), for which the Ratio in the assay with HepG2 [2] is listed as 0.767; in the assay on HepG2 [3], 0.376; in the assay with HepG2 [5] it was 0.846; with HepG2 [9] it was 0.312. The molecule also returned an IC50 in the assay on HepG2 [10] of 60 µM.
`COc1ccc(C2C(C#N)=C(N)Oc3nc(Nc4ccc(S(N)(=O)=O)cc4)sc32)cc1OC` (stereo not drawn): the Ratio with HepG2 [2] turned out to be 0.564; in the assay with HepG2 [3], 0.64; with HepG2 [5], 0.628; with HepG2 [9] it was 0.672.
Regarding `N#CC1=C(N)Oc2nc(Nc3ccc(S(N)(=O)=O)cc3)sc2C1c1ccccc1Cl` (stereo not drawn), the Ratio in the assay with HepG2 [2] is listed as 0.861; with HepG2 [3], 0.582; in the assay with HepG2 [5] it was 0.909; with HepG2 [9], 0.655.
Turning to `N#CC1=C(N)Oc2nc(Nc3ccc(S(N)(=O)=O)cc3)sc2C1c1cccc(Br)c1` (stereo not drawn), the Ratio is 0.564 in the assay with HepG2 [2], 0.388 with HepG2 [3], 0.846 in the assay on HepG2 [5] and 0.509 in the assay on HepG2 [9]. The molecule further showed an IC50 with HepG2 [10] of 72 µM.
In the same order, the values of `Nc1ncnc2c1C(c1ccc([N+](=O)[O-])cc1)c1sc(Nc3ccc(S(N)(=O)=O)cc3)nc1O2` (stereo not drawn) are 0.605, 0.287, 0.814, 0.489 and 65 µM.
Take `NS(=O)(=O)c1ccc(Nc2nc3c(s2)C(c2ccc([N+](=O)[O-])cc2)c2c(nc[nH]c2=O)O3)cc1` (stereo not drawn): the Ratio with HepG2 [1] stood at 0.12; in the assay on HepG2 [2], 0.498; in the assay with HepG2 [3], 0.168; with HepG2 [4], 0.22; in the assay on HepG2 [5] it was 0.625; in the assay with HepG2 [6] it was 0.14. The Ratio in the assay with HepG2 [7] is recorded as 0.41; in the assay with HepG2 [9] it was 0.015. In addition, the IC50 in the assay with HepG2 [8] is 18 µM; in the assay with HepG2 [10], 36 µM.
On to `COc1ccc(C2c3sc(Nc4ccc(S(N)(=O)=O)cc4)nc3Oc3nc[nH]c(=O)c32)cc1OC` (stereo not drawn), for which the Ratio with HepG2 [2] is reported as 0.446; in the assay with HepG2 [3], 0.164; in the assay on HepG2 [5] it was 0.561; in the assay with HepG2 [9], 0.127. Further, the IC50 in the assay on HepG2 [10] came to 32 µM.
On the same counts, the results for `Cc1nc2c(c(=O)[nH]1)C(c1ccc([N+](=O)[O-])cc1)c1sc(Nc3ccc(S(N)(=O)=O)cc3)nc1O2` (stereo not drawn) are 0.498, 0.301, 0.764, 0.213 and 45 µM.
As for `COc1ccc(C2c3sc(Nc4ccc(S(N)(=O)=O)cc4)nc3Oc3nc(C)[nH]c(=O)c32)cc1OC` (stereo not drawn), the Ratio is 0.1 in the assay on HepG2 [1]; 0.477 in the assay with HepG2 [2]; 0.118 with HepG2 [3]; 0.12 with HepG2 [4]; 0.529 with HepG2 [5]; 0.11 with HepG2 [6]. The values for the Ratio in the assay with HepG2 [7] and in the assay with HepG2 [9] were 0.31 and 0.115, respectively. In addition, the half-maximal inhibitory concentration (IC50) turned out to be 8 µM in the assay with HepG2 [8] and 30 µM with HepG2 [10].
`Nc1nc(=O)[nH]c2c1C(c1ccc([N+](=O)[O-])cc1)c1sc(Nc3ccc(S(N)(=O)=O)cc3)nc1O2` (stereo not drawn): the Ratio in the assay on HepG2 [2] came out at 0.487; with HepG2 [3] it was 0.244; in the assay with HepG2 [5] it was 0.779; with HepG2 [9] it was 0.262. In the assay on HepG2 [10], the IC50 was determined as 45 µM.
On the same counts, the results for `Nc1nc(=S)[nH]c2c1C(c1ccc([N+](=O)[O-])cc1)c1sc(Nc3ccc(S(N)(=O)=O)cc3)nc1O2` (stereo not drawn) are 0.432, 0.284, 0.615, 0.246 and 39 µM.
On the same counts, the results for `N#CC1=C(N2C(=O)CCC2=O)Oc2nc(Nc3ccc(S(N)(=O)=O)cc3)sc2C1c1ccc([N+](=O)[O-])cc1` (stereo not drawn) are 0.474, 0.342, 0.71, 0.231 and 45 µM.
With `N#CC1=C(NC(=O)CCC(=O)O)Oc2nc(Nc3ccc(S(N)(=O)=O)cc3)sc2C1c1ccc([N+](=O)[O-])cc1` (stereo not drawn), the Ratio in the assay on HepG2 [1] is 0.11; in the assay with HepG2 [2] it was 0.382; with HepG2 [3], 0.127; with HepG2 [4], 0.23; in the assay on HepG2 [5], 0.626; with HepG2 [6] it was 0.13. The Ratio with HepG2 [7] was determined as 0.36; in the assay on HepG2 [9], 0.166. In addition, the values for the IC50 in the assay with HepG2 [8] and in the assay on HepG2 [10] were 15 µM and 32 µM, respectively.
Consider `CC(=O)CC(=O)NC1=C(C#N)C(c2ccc([N+](=O)[O-])cc2)c2sc(Nc3ccc(S(N)(=O)=O)cc3)nc2O1` (stereo not drawn), for which the Ratio in the assay with HepG2 [2] was determined as 0.456; with HepG2 [3] it was 0.206; in the assay with HepG2 [5], 0.546; in the assay on HepG2 [9], 0.299. The half-maximal inhibitory concentration (IC50) in the assay with HepG2 [10] turned out to be 37 µM.
Regarding `COc1ccc(C2c3sc(Nc4ccc(S(N)(=O)=O)cc4)nc3Oc3[nH]c(=S)n(-c4ccccc4)c(=N)c32)cc1OC` (stereo not drawn), the Ratio worked out at 0.12 in the assay with HepG2 [1]; 0.434 with HepG2 [2]; 0.128 in the assay with HepG2 [3]; 0.21 in the assay on HepG2 [4]; 0.593 in the assay with HepG2 [5]; 0.13 with HepG2 [6]. The Ratio in the assay with HepG2 [7] is recorded as 0.4; with HepG2 [9], 0.137. Also, the half-maximal inhibitory concentration (IC50) with HepG2 [8] was 17 µM; in the assay with HepG2 [10], 31 µM.
`COc1cccc2c1C(=O)c1c(O)c3c(c(O)c1C2=O)C[C@@](O)(C(=O)CO)C[C@@H]3O[C@H]1C[C@H](N)[C@H](O)[C@H](C)O1` [DOXORUBICIN]: the Ratio in the assay with HepG2 [2] is reported as 0.479; with HepG2 [3], 0.122; in the assay with HepG2 [5], 0.537; in the assay with HepG2 [9] it was 0.125. In the assay on HepG2 [10], this molecule yielded an IC50 of 32 µM.
